Counter-ions that a name gives are not always drawn.
What follows are compounds tested against T1, human CYP2D6 (Homo sapiens, UniProt P10635) (assay: biochemical). Settings: CYP2D6 IC50.
T1 sequence (P10635 whole entry): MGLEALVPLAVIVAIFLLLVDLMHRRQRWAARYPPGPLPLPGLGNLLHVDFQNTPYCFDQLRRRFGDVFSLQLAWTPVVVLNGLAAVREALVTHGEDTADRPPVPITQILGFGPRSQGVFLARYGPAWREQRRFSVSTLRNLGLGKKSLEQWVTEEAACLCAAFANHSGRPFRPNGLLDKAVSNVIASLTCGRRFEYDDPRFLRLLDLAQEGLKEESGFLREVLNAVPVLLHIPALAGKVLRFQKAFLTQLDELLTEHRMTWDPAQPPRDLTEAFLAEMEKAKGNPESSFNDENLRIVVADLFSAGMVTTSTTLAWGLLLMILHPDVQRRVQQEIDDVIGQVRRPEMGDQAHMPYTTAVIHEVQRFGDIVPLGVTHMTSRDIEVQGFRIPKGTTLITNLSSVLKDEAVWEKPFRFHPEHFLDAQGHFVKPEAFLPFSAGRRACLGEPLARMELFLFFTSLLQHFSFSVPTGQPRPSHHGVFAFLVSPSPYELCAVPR
For CCN(CC)CCNc1ccc(CO)c2sc3ccccc3c(=O)c12 [Hycanthone], the IC50 was 3.77 µM. CCN(CC)CCCC(C)Nc1c2ccc(Cl)cc2nc2ccc(OC)cc12 (stereo not drawn) [Quinacrine] was tested, and the IC50 was 0.18 µM. With Oc1cc(Cl)ccc1Oc1ccc(Cl)cc1Cl [Triclosan] the IC50 was 32.8 µM. CS(=O)(=O)c1ccc(-c2cn3ccccc3n2)cc1 [Zolimidine] showed an IC50 of 24.2 µM.

Same assay, conditions: CYP2D6 IC50 (half-maximal inhibitory concentration)
For Cc1ccc(Cl)c(OCC(O)CNC(C)(C)C)c1 (stereo not drawn) [Bupranolol], the IC50 was 0.98 µM. For CCCCN(CCCC)CCCOC(=O)c1ccc(N)cc1 [Butacaine], the IC50 was 0.03 µM. For CN(C)CCCSc1ccccc1NC(=O)/C=C/c1ccccc1 [Cinanserin], the IC50 was 0.52 µM. With Clc1ccccc1C(c1ccccc1)(c1ccccc1)n1ccnc1 [Clotrimazole] the IC50 was 46.2 µM. In the case of CCN(CC)c1c([N+](=O)[O-])cc(C(F)(F)F)c(N)c1[N+](=O)[O-] [Dinitramine], the IC50 is reported as 55.8 µM. COc1ccc(-c2coc3cc(O)ccc3c2=O)cc1 [Formononetin] showed an IC50 of 51.6 µM. Compound CN1[C@@H]2CC[C@H]1C[C@@H](OC(=O)c1cc(Cl)cc(Cl)c1)C2 [MDL 72222] has an IC50 of 0.05 µM. CC(COc1ccccc1)N(CCCl)Cc1ccccc1 (stereo not drawn) [Phenoxybenzamine hydrochloride] showed an IC50 of 0.38 µM. CC(CN1c2ccccc2Sc2ccccc21)N(C)C (stereo not drawn) [Promethazine hydrochloride] was tested, and the IC50 was 0.89 µM.

These compounds were tested against CYP3A4 (Homo sapiens, UniProt P08684) (assay: not given). Settings: not given.
CYP3A4, sequence (P08684 whole entry): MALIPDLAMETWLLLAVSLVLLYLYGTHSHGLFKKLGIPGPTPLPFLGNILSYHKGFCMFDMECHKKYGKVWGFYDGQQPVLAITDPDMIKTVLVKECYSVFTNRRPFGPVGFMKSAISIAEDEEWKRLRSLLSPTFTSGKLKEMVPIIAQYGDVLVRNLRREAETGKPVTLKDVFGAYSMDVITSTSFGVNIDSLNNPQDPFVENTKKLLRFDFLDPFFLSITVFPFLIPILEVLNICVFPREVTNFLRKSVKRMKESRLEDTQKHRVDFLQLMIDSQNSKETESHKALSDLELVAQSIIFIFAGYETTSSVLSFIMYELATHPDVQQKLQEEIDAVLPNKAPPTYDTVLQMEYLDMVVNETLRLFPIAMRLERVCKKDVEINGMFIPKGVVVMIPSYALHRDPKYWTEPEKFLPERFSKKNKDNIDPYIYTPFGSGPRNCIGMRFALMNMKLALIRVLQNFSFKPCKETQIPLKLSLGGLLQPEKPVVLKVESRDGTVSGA
In the case of Cc1ccc(Cl)c(OCC(O)CNC(C)(C)C)c1 (stereo not drawn) [Bupranolol], the “CYP3A4 IC50 (half-maximal inhibitory concentration)” value is reported as “Inactive”. CCCCN(CCCC)CCCOC(=O)c1ccc(N)cc1 [Butacaine] was tested, and the “CYP3A4 IC50 (half-maximal inhibitory concentration)” value was “Inactive”. With CN(C)CCCSc1ccccc1NC(=O)/C=C/c1ccccc1 [Cinanserin] the “CYP3A4 IC50 (half-maximal inhibitory concentration)” value was “Inactive”. For Clc1ccccc1C(c1ccccc1)(c1ccccc1)n1ccnc1 [Clotrimazole], the “CYP3A4 Efficacy (in parenthesis)” value was 0.02 ± 0.01 (-96 ± 6) %. With CCN(CC)c1c([N+](=O)[O-])cc(C(F)(F)F)c(N)c1[N+](=O)[O-] [Dinitramine] the “CYP3A4 IC50 (half-maximal inhibitory concentration)” value was “Inactive”. COc1ccc(-c2coc3cc(O)ccc3c2=O)cc1 [Formononetin] was tested, and the “CYP3A4 IC50 (half-maximal inhibitory concentration)” value was “Inactive”. With CCN(CC)CCNc1ccc(CO)c2sc3ccccc3c(=O)c12 [Hycanthone] the “CYP3A4 IC50” value was “Inactive”. With CN1[C@@H]2CC[C@H]1C[C@@H](OC(=O)c1cc(Cl)cc(Cl)c1)C2 [MDL 72222] the “CYP3A4 IC50 (half-maximal inhibitory concentration)” value was “Inactive”. CC(COc1ccccc1)N(CCCl)Cc1ccccc1 (stereo not drawn) [Phenoxybenzamine hydrochloride] was tested, and the “CYP3A4 IC50 (half-maximal inhibitory concentration)” value was “Inactive”. With CC(CN1c2ccccc2Sc2ccccc21)N(C)C (stereo not drawn) [Promethazine hydrochloride] the “CYP3A4 IC50 (half-maximal inhibitory concentration)” value was “Inactive”. With CCN(CC)CCCC(C)Nc1c2ccc(Cl)cc2nc2ccc(OC)cc12 (stereo not drawn) [Quinacrine] the “CYP3A4 IC50” value was “Inactive”. In the case of Oc1cc(Cl)ccc1Oc1ccc(Cl)cc1Cl [Triclosan], the “CYP3A4 IC50” value is reported as “Inactive”. CS(=O)(=O)c1ccc(-c2cn3ccccc3n2)cc1 [Zolimidine] was tested, and the “CYP3A4 IC50” value was “Inactive”.

What follows are compounds tested against Photinus pyralis (firefly) luciferase (Photinus pyralis, UniProt P08659) (assay: biochemical). Settings: not given.
Photinus pyralis (firefly) luciferase, sequence (P08659 whole entry): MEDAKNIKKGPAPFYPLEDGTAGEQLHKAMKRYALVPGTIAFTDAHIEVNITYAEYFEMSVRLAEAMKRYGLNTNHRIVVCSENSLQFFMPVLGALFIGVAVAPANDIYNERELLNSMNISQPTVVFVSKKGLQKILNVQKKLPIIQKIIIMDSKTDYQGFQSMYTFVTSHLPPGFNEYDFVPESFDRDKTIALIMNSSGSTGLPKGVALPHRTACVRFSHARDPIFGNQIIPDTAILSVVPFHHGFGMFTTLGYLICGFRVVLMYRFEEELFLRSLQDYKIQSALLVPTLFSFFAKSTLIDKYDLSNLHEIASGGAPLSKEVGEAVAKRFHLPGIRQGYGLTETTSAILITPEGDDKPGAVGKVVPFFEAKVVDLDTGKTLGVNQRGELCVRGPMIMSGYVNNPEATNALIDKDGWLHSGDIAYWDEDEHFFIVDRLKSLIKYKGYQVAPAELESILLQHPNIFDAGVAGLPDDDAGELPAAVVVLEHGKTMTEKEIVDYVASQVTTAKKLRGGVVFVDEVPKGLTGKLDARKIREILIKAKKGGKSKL
Type: biochemical
Cc1ccc(Cl)c(OCC(O)CNC(C)(C)C)c1 (stereo not drawn) [Bupranolol] was tested, and the “Luciferase IC50 (half-maximal inhibitory concentration)” value was “Inactive”. For CCCCN(CCCC)CCCOC(=O)c1ccc(N)cc1 [Butacaine], the “Luciferase IC50 (half-maximal inhibitory concentration)” value was “Inactive”. In the case of CN(C)CCCSc1ccccc1NC(=O)/C=C/c1ccccc1 [Cinanserin], the “Luciferase IC50 (half-maximal inhibitory concentration)” value is reported as “Inactive”. In the case of Clc1ccccc1C(c1ccccc1)(c1ccccc1)n1ccnc1 [Clotrimazole], the “Luciferase IC50 (half-maximal inhibitory concentration)” value is reported as “Inactive”. With CCN(CC)c1c([N+](=O)[O-])cc(C(F)(F)F)c(N)c1[N+](=O)[O-] [Dinitramine] the “Luciferase IC50 (half-maximal inhibitory concentration)” value was “Inactive”. COc1ccc(-c2coc3cc(O)ccc3c2=O)cc1 [Formononetin] was tested, and the IC50 was 3.18 µM. For CCN(CC)CCNc1ccc(CO)c2sc3ccccc3c(=O)c12 [Hycanthone], the “Luciferase IC50” value was “Inactive”. CN1[C@@H]2CC[C@H]1C[C@@H](OC(=O)c1cc(Cl)cc(Cl)c1)C2 [MDL 72222] was tested, and the “Luciferase IC50 (half-maximal inhibitory concentration)” value was “Inactive”. For CC(COc1ccccc1)N(CCCl)Cc1ccccc1 (stereo not drawn) [Phenoxybenzamine hydrochloride], the “Luciferase IC50 (half-maximal inhibitory concentration)” value was “Inactive”. For CC(CN1c2ccccc2Sc2ccccc21)N(C)C (stereo not drawn) [Promethazine hydrochloride], the “Luciferase IC50 (half-maximal inhibitory concentration)” value was “Inactive”. For CCN(CC)CCCC(C)Nc1c2ccc(Cl)cc2nc2ccc(OC)cc12 (stereo not drawn) [Quinacrine], the “Luciferase IC50” value was “Inactive”. In the case of Oc1cc(Cl)ccc1Oc1ccc(Cl)cc1Cl [Triclosan], the “Luciferase IC50” value is reported as “Inactive”. CS(=O)(=O)c1ccc(-c2cn3ccccc3n2)cc1 [Zolimidine] showed an IC50 of 6.95 µM.

These compounds were tested against T2, human CYP2C19 (Homo sapiens, UniProt P33261) (assay: not given). Settings: not given.
T2 sequence (P33261 whole entry): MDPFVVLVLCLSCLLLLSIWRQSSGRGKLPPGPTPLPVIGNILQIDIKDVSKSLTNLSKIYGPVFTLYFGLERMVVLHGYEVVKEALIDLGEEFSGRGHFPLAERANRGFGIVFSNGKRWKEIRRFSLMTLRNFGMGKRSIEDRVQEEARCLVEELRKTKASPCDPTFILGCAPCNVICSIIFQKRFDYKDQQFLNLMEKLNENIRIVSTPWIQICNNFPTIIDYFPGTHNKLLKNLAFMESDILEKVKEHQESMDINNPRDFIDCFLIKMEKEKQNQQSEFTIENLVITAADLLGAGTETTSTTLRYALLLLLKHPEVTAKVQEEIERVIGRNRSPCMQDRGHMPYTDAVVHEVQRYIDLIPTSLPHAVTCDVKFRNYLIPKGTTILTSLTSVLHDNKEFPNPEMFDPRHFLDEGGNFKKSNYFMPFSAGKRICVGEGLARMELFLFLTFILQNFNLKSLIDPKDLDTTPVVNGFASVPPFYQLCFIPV
With Cc1ccc(Cl)c(OCC(O)CNC(C)(C)C)c1 (stereo not drawn) [Bupranolol] the “CYP2C19 IC50 (half-maximal inhibitory concentration)” value was “Inactive”. In the case of CCN(CC)CCNc1ccc(CO)c2sc3ccccc3c(=O)c12 [Hycanthone], the “CYP2C19 IC50” value is reported as “Inactive”. CN1[C@@H]2CC[C@H]1C[C@@H](OC(=O)c1cc(Cl)cc(Cl)c1)C2 [MDL 72222] was tested, and the “CYP2C19 IC50 (half-maximal inhibitory concentration)” value was “Inactive”. With CCN(CC)CCCC(C)Nc1c2ccc(Cl)cc2nc2ccc(OC)cc12 (stereo not drawn) [Quinacrine] the “CYP2C19 IC50” value was “Inactive”.

Same assay, conditions: human
CN(C)CCCSc1ccccc1NC(=O)/C=C/c1ccccc1 [Cinanserin] was tested, and the “CYP2C19 Efficacy (in parenthesis)” value was 29.59 ± 16.13 (-78 ± 38) %. For Clc1ccccc1C(c1ccccc1)(c1ccccc1)n1ccnc1 [Clotrimazole], the “CYP2C19 Efficacy (in parenthesis)” value was 3.88 ± 0.66 (-140 ± 14) %.

The compounds below were run against T2, human CYP2C19 (assay: biochemical). Settings: CYP2C19 IC50.
In the case of Oc1cc(Cl)ccc1Oc1ccc(Cl)cc1Cl [Triclosan], the IC50 is reported as 0.71 µM. Compound CS(=O)(=O)c1ccc(-c2cn3ccccc3n2)cc1 [Zolimidine] has an IC50 of 25.7 µM.

Same assay, conditions: CYP2C19 IC50 (half-maximal inhibitory concentration)
CCCCN(CCCC)CCCOC(=O)c1ccc(N)cc1 [Butacaine] gave an IC50 of 38.9 µM. CN(C)CCCSc1ccccc1NC(=O)/C=C/c1ccccc1 [Cinanserin] was tested, and the IC50 was 29.6 µM. Clc1ccccc1C(c1ccccc1)(c1ccccc1)n1ccnc1 [Clotrimazole] was tested, and the IC50 was 3.88 µM. In the case of CCN(CC)c1c([N+](=O)[O-])cc(C(F)(F)F)c(N)c1[N+](=O)[O-] [Dinitramine], the IC50 is reported as 19.3 µM. COc1ccc(-c2coc3cc(O)ccc3c2=O)cc1 [Formononetin] gave an IC50 of 62.3 µM. CC(COc1ccccc1)N(CCCl)Cc1ccccc1 (stereo not drawn) [Phenoxybenzamine hydrochloride] was tested, and the IC50 was 2.44 µM. CC(CN1c2ccccc2Sc2ccccc21)N(C)C (stereo not drawn) [Promethazine hydrochloride] gave an IC50 of 14.5 µM.

Each compound was assayed against T1, human CYP2D6 (assay: not given). Settings: human.
CN(C)CCCSc1ccccc1NC(=O)/C=C/c1ccccc1 [Cinanserin] was tested, and the “CYP2D6 Efficacy (in parenthesis)” value was 0.52 ± 0.22 (-96 ± 14) %. Clc1ccccc1C(c1ccccc1)(c1ccccc1)n1ccnc1 [Clotrimazole] was tested, and the “CYP2D6 Efficacy (in parenthesis)” value was 46.25 ± 14.89 (-110 ± 18) %.

Each compound was assayed against T3, human CYP1A2 (Homo sapiens, UniProt P05177) (assay: biochemical). Settings: CYP1A2 IC50.
T3 sequence (P05177 1-516): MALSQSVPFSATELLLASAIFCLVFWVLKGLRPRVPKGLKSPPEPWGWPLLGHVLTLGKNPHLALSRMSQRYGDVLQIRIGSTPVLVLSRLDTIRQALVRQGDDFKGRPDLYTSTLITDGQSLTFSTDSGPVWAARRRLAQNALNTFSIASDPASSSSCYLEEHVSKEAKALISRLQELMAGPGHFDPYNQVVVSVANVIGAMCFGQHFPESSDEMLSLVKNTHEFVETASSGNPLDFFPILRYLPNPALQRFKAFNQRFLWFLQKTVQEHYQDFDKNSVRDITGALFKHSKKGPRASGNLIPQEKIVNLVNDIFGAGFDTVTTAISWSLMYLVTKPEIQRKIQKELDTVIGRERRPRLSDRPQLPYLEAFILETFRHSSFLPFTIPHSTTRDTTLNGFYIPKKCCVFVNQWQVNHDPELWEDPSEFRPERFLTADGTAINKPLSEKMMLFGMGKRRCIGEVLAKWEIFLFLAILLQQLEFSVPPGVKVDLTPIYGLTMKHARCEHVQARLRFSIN
With CCN(CC)CCNc1ccc(CO)c2sc3ccccc3c(=O)c12 [Hycanthone] the IC50 was 0.58 µM. CCN(CC)CCCC(C)Nc1c2ccc(Cl)cc2nc2ccc(OC)cc12 (stereo not drawn) [Quinacrine] gave an IC50 of 2.2 µM. Oc1cc(Cl)ccc1Oc1ccc(Cl)cc1Cl [Triclosan] gave an IC50 of 20.8 µM. CS(=O)(=O)c1ccc(-c2cn3ccccc3n2)cc1 [Zolimidine] gave an IC50 of 0.7 µM.

Same assay, conditions: CYP1A2 IC50 (half-maximal inhibitory concentration)
For Cc1ccc(Cl)c(OCC(O)CNC(C)(C)C)c1 (stereo not drawn) [Bupranolol], the IC50 was 15.5 µM. Compound CCCCN(CCCC)CCCOC(=O)c1ccc(N)cc1 [Butacaine] has an IC50 of 22.4 µM. For CCN(CC)c1c([N+](=O)[O-])cc(C(F)(F)F)c(N)c1[N+](=O)[O-] [Dinitramine], the IC50 was 0.3 µM. COc1ccc(-c2coc3cc(O)ccc3c2=O)cc1 [Formononetin] showed an IC50 of 14.4 µM. Work on CN1[C@@H]2CC[C@H]1C[C@@H](OC(=O)c1cc(Cl)cc(Cl)c1)C2 [MDL 72222] yielded an IC50 of 14.6 µM. For CC(COc1ccccc1)N(CCCl)Cc1ccccc1 (stereo not drawn) [Phenoxybenzamine hydrochloride], the IC50 was 65.8 µM. With CC(CN1c2ccccc2Sc2ccccc21)N(C)C (stereo not drawn) [Promethazine hydrochloride] the IC50 was 2.23 µM.

These compounds were tested against T4, human CYP2C9 (Homo sapiens, UniProt P11712) (assay: biochemical). Settings: CYP2C9 IC50.
T4 sequence (P11712 whole entry): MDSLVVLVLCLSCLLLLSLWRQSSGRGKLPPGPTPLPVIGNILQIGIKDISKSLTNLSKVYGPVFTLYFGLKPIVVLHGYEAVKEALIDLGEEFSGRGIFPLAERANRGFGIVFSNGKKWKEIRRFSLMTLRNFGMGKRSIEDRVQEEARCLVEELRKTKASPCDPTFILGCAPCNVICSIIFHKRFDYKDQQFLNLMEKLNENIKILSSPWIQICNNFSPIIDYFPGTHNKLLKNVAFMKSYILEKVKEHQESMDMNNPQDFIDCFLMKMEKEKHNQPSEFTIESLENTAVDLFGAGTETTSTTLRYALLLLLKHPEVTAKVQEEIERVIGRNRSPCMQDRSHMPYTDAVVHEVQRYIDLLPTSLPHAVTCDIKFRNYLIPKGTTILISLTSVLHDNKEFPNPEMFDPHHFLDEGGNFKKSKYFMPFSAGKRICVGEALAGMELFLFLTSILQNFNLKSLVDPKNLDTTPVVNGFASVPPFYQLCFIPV
Compound CS(=O)(=O)c1ccc(-c2cn3ccccc3n2)cc1 [Zolimidine] has an IC50 of 24.1 µM.

Same assay, conditions: CYP2C9 IC50 (half-maximal inhibitory concentration)
With CCCCN(CCCC)CCCOC(=O)c1ccc(N)cc1 [Butacaine] the IC50 was 26.4 µM. Work on Clc1ccccc1C(c1ccccc1)(c1ccccc1)n1ccnc1 [Clotrimazole] yielded an IC50 of 1.14 µM. For CCN(CC)c1c([N+](=O)[O-])cc(C(F)(F)F)c(N)c1[N+](=O)[O-] [Dinitramine], the IC50 was 74.5 µM. COc1ccc(-c2coc3cc(O)ccc3c2=O)cc1 [Formononetin] was tested, and the IC50 was 0.29 µM. Compound CC(COc1ccccc1)N(CCCl)Cc1ccccc1 (stereo not drawn) [Phenoxybenzamine hydrochloride] has an IC50 of 22.8 µM.

Each compound was assayed against T3, human CYP1A2 (assay: not given). Settings: not given.
CN(C)CCCSc1ccccc1NC(=O)/C=C/c1ccccc1 [Cinanserin] was tested, and the “CYP1A2 IC50 (half-maximal inhibitory concentration)” value was “Inactive”.

Same assay, conditions: human
In the case of Clc1ccccc1C(c1ccccc1)(c1ccccc1)n1ccnc1 [Clotrimazole], the “CYP1A2 Efficacy (in parenthesis)” value is reported as 9.92 ± 2.76 (-108 ± 12) %.

What follows are compounds tested against T4, human CYP2C9 (assay: not given). Settings: not given.
For Cc1ccc(Cl)c(OCC(O)CNC(C)(C)C)c1 (stereo not drawn) [Bupranolol], the “CYP2C9 IC50 (half-maximal inhibitory concentration)” value was “Inactive”. For CN(C)CCCSc1ccccc1NC(=O)/C=C/c1ccccc1 [Cinanserin], the “CYP2C9 IC50 (half-maximal inhibitory concentration)” value was “Inactive”. CCN(CC)CCNc1ccc(CO)c2sc3ccccc3c(=O)c12 [Hycanthone] was tested, and the “CYP2C9 IC50” value was “Inactive”. With CN1[C@@H]2CC[C@H]1C[C@@H](OC(=O)c1cc(Cl)cc(Cl)c1)C2 [MDL 72222] the “CYP2C9 IC50 (half-maximal inhibitory concentration)” value was “Inactive”. In the case of CCN(CC)CCCC(C)Nc1c2ccc(Cl)cc2nc2ccc(OC)cc12 (stereo not drawn) [Quinacrine], the “CYP2C9 IC50” value is reported as “Inactive”.

Same assay, conditions: human
With Clc1ccccc1C(c1ccccc1)(c1ccccc1)n1ccnc1 [Clotrimazole] the “CYP2C9 Efficacy (in parenthesis)” value was 1.14 ± 0.44 (-107 ± 6) %.
